This is an account of results in patent US20260285801A1, “LIPID NANOPARTICLE FOR TARGETED DELIVERY OF THERAPEUTIC PAYLOADS” (Trustees of Tufts College, priority 2023, published 2026).

Series [1] can be described thus: LNP size and polydispersity index by dynamic light scattering (Zetasizer Nano ZS). The series is classed as physicochemical. As to conditions: LNP with mRNA payload formulated with the lipid; active lipid/Cholesterol/DOPC/DMG-PEG 16.8/4.0/2.0/1.0; Lipids:mRNA 25:1; PBS pH 7.4, 25° C. As to the method: (§1) RNA working solutions (0.134 mg/ml) were prepared in 25 mM sodium acetate buffer using DNase/RNase-free distilled water. Lipid stock solutions (10 mg/mL) were freshly prepared with active lipids or helper lipids (e.g., cholesterol, DOPC or DSPC, or ALC-0159) in ethanol. Reagents were mixed by vortexing and sonicating until the lipids were completely dissolved. A lipid mixture was first prepared by combining the active lipids (e.g., ionizable lipids of the present disclosure) and helper lipids into one vial and mixing thoroughly. Lipid nanoparticles were then formed by mixing the RNA working solution (0.134 mg/ml) and the lipid mixture at 3:1 volume ratio, either manually (for smaller scale) or by Precision Igniter microfluidic device. The formulation solution was transferred into a 300 kDa MWCO Float-A-Lyzer G2 Dialysis Device and dialyzed against at least 1000-folds volume of 50 mM Tris buffer overnight at 4° C. The LNP solution was sterilized with a 0.22 μm filter.
(§2) For LNP characterization, size and polydispersity index (PDI) were determined by dynamic light scattering using a Zetasizer Nano ZS. 10 μL of LNP suspension was transferred to a low-volume cuvette containing 900 μL of Ca^2+ and Mg^2+ free PBS at pH 7.4. Refractive index was set to […] and temperature was set to 25° C. Encapsulation efficiency (EE %) was measured using a fluorescence plate-based assay employing the Ribogreen reagent (Invitrogen) as per PNI Ribogreen assay protocol 16. This assay measures the quantity of mRNA in samples with intact LNPs to determine the quantity of unencapsulated RNA as well as in LNP samples disrupted by triton X-100 to measure the total RNA. EE % is calculated as the difference between the total RNA and the unencapsulated RNA divided by the total RNA.

A short description of series [2]: Encapsulation efficiency and mRNA quantity by Ribogreen fluorescence plate assay. Conditions: LNP with mRNA payload formulated with the lipid, 16.8/4.0/2.0/1.0, Lipids:mRNA 25:1; for EE %: (total RNA - unencapsulated RNA)/total RNA. It is filed as physicochemical. As to the method: as §1, §2

For `CCCCCCC(CCCC)COC(=O)OCCOC(=O)CCN(CCCN(C)CCCN(CCC(=O)OCCOC(=O)OCC(CCCC)CCCCCC)CCC(=O)OCCOC(=O)OCC(CCCC)CCCCCC)CCC(=O)OCCOC(=O)OCC(CCCC)CCCCCC` (centres unmarked) [Lipid L0088], in series [1], the PDI is listed as 0.087 and the “Size (nm)” value was 153.9 nm. Further, in series [2], the “[mRNA] Ug/ml” value is recorded as 69.7 Ug/ml and the EE % amounted to 85.2%.

Turning to `CCCCCCC(CCCC)CNC(=O)SCCOC(=O)CCN(CCCN(C)CCCN(CCC(=O)OCCSC(=O)NCC(CCCC)CCCCCC)CCC(=O)OCCSC(=O)NCC(CCCC)CCCCCC)CCC(=O)OCCSC(=O)NCC(CCCC)CCCCCC` (centres unmarked) [Lipid L0550], in series [1], the PDI is given as 0.14 and the “Size (nm)” value was 121 nm. In series [2], the “[mRNA] Ug/ml” value was 61.1 Ug/ml and the EE % is 84.3%.

Regarding `CCC1CC1CCCCSSCCOC(=O)CCN(CCCN(C)CCCN(CCC(=O)OCCSSCCCCC1CC1CC)CCC(=O)OCCSSCCCCC1CC1CC)CCC(=O)OCCSSCCCCC1CC1CC` (centres unmarked) [Lipid L0586], in series [1], the PDI is on record as 0.079 and the “Size (nm)” value was 151.8 nm. For the same molecule, in series [2], the “[mRNA] Ug/ml” value is on record as 78 Ug/ml and the EE % turned out to be 21.2%.

Turning to `CCC(C)CCCCCOC(=O)CCN(CCCN(C)CCCN(CCC(=O)OCCCCCC(C)CC)CCC(=O)OCCCCCC(C)CC)CCC(=O)OCCCCCC(C)CC` (centres unmarked) [Lipid L0630], in series [1], the PDI is reported as 0.102 and the “Size (nm)” value was determined as 121.9 nm. In addition, in series [2], the “[mRNA] Ug/ml” value was 74.99 Ug/ml and the EE % amounted to 60.74%.

In the case of `CCC(C)CCCCCOC(=O)CCN(CCC(=O)OCCCCCC(C)CC)CCN(C)CCN(CCC(=O)OCCCCCC(C)CC)CCC(=O)OCCCCCC(C)CC` (centres unmarked) [Lipid L0631], in series [1], the PDI came to 0.105 and the “Size (nm)” value was 122.2 nm. Besides, in series [2], the “[mRNA] Ug/ml” value is 88.88 Ug/ml and the EE % is recorded as 45.59%.

As for `CCCCCCCCC(CCC)OC(=O)OCCOC(=O)CCN(CCCN(C)CCCN(CCC(=O)OCCOC(=O)OC(CCC)CCCCCCCC)CCC(=O)OCCOC(=O)OC(CCC)CCCCCCCC)CCC(=O)OCCOC(=O)OC(CCC)CCCCCCCC` (centres unmarked) [Lipid L0637], in series [1], the PDI is 0.34 and the “Size (nm)” value is given as 186.1 nm. In addition, in series [2], the “[mRNA] Ug/ml” value came out at 66.8 Ug/ml and the EE % was 94%.

On to `CCCCCCCCC(CCC)OC(=O)OCCOC(=O)CCN(CCC(=O)OCCOC(=O)OC(CCC)CCCCCCCC)CCN(C)CCN(CCC(=O)OCCOC(=O)OC(CCC)CCCCCCCC)CCC(=O)OCCOC(=O)OC(CCC)CCCCCCCC` (centres unmarked) [Lipid L0638], for which, in series [1], the PDI is on record as 0.22 and the “Size (nm)” value is 121.5 nm. In series [2], the “[mRNA] Ug/ml” value is reported as 65.1 Ug/ml and the EE % was 95.7%.

As to `CC(C)CCCCCCSSCCOC(=O)CCN(CCCN(C)CCCN(CCC(=O)OCCSSCCCCCCC(C)C)CCC(=O)OCCSSCCCCCCC(C)C)CCC(=O)OCCSSCCCCCCC(C)C` [Lipid L0642], in series [1], the PDI is 0.124 and the “Size (nm)” value was found to be 186.4 nm. In addition, in series [2], the “[mRNA] Ug/ml” value came out at 99.9 Ug/ml and the EE % is listed as 84.5%.

As for `CC(C)CCCCCCSSCCOC(=O)CCN(CCCn1ccnc1)CCC(=O)OCCSSCCCCCCC(C)C` [Lipid L0645], in series [1], the PDI is 0.106 and the “Size (nm)” value is recorded as 161 nm. In series [2], the “[mRNA] Ug/ml” value is 90 Ug/ml and the EE % was 74.2%.

`CCCCCCCC(CCCCCC)OC(=O)OCCOC(=O)CCN(CCCN(C)CCCN(CCC(=O)OCCOC(=O)OC(CCCCCC)CCCCCCC)CCC(=O)OCCOC(=O)OC(CCCCCC)CCCCCCC)CCC(=O)OCCOC(=O)OC(CCCCCC)CCCCCCC` (centres unmarked) [Lipid L0654]: in series [1], the PDI worked out at 0.1 and the “Size (nm)” value worked out at 119.4 nm. In series [2], the “[mRNA] Ug/ml” value is listed as 65.6 Ug/ml and the EE % was determined as 90.6%.

On to `CCCCCCCCCC(CC)OC(=O)OCCOC(=O)CCN(CCCN(C)CCCN(CCC(=O)OCCOC(=O)OC(CC)CCCCCCCCC)CCC(=O)OCCOC(=O)OC(CC)CCCCCCCCC)CCC(=O)OCCOC(=O)OC(CC)CCCCCCCCC` (centres unmarked) [Lipid L0659], for which, in series [1], the PDI was 0.1 and the “Size (nm)” value turned out to be 104.3 nm. Also, in series [2], the “[mRNA] Ug/ml” value was 69.6 Ug/ml and the EE % is 96.2%.

Consider `CCCCCCCCCC(CC)OC(=O)OCCOC(=O)CCN(CCCN(C)CCCN(CCC(=O)OCCOC(=O)OC(CC)CCCCCCCCC)CCC(=O)OCCOC(=O)OC(CC)CCCCCCCCC)CCC(=O)OCCOC(=O)OC(CC)CCCCCCCCC` (centres unmarked) [Lipid L0660], for which, in series [1], the PDI stood at 0.11 and the “Size (nm)” value amounted to 122.2 nm. Also, in series [2], the “[mRNA] Ug/ml” value is listed as 71 Ug/ml and the EE % amounted to 97%.

On to `CCCCCCC(CCCC)COC(=O)OCCOC(=O)CCN(CCCN(CCO)CCCN(CCC(=O)OCCOC(=O)OCC(CCCC)CCCCCC)CCC(=O)OCCOC(=O)OCC(CCCC)CCCCCC)CCC(=O)OCCOC(=O)OCC(CCCC)CCCCCC` (centres unmarked) [Lipid L0665], for which, in series [1], the PDI is on record as 0.16 and the “Size (nm)” value worked out at 107.6 nm. In addition, in series [2], the “[mRNA] Ug/ml” value is on record as 65.8 Ug/ml and the EE % came to 97.2%.

In the case of `CCCCCCC(CCCC)COC(=O)OCCOC(=O)CCN(CCCN(CCCO)CCCN(CCC(=O)OCCOC(=O)OCC(CCCC)CCCCCC)CCC(=O)OCCOC(=O)OCC(CCCC)CCCCCC)CCC(=O)OCCOC(=O)OCC(CCCC)CCCCCC` (centres unmarked) [Lipid L0666], in series [1], the PDI is 0.26 and the “Size (nm)” value was 246.5 nm. Besides, in series [2], the “[mRNA] Ug/ml” value came out at 71.9 Ug/ml and the EE % was determined as 96.1%.

Regarding `CCCCCCC(CCCC)COC(=O)OCCOC(=O)CCN(CCCN(CCCCO)CCCN(CCC(=O)OCCOC(=O)OCC(CCCC)CCCCCC)CCC(=O)OCCOC(=O)OCC(CCCC)CCCCCC)CCC(=O)OCCOC(=O)OCC(CCCC)CCCCCC` (centres unmarked) [Lipid L0667], in series [1], the PDI is reported as 0.19 and the “Size (nm)” value stood at 101.7 nm. Moreover, in series [2], the “[mRNA] Ug/ml” value is 77.3 Ug/ml and the EE % is on record as 97%.

Consider `CCCCCCC(CCCC)COC(=O)OCCOC(=O)CCN(CCCN(CCCNC(=O)OC(C)(C)C)CCCN(CCC(=O)OCCOC(=O)OCC(CCCC)CCCCCC)CCC(=O)OCCOC(=O)OCC(CCCC)CCCCCC)CCC(=O)OCCOC(=O)OCC(CCCC)CCCCCC` (centres unmarked) [Lipid L0668], for which, in series [1], the PDI was 0.11 and the “Size (nm)” value is 134.7 nm. For the same molecule, in series [2], the “[mRNA] Ug/ml” value is given as 67.1 Ug/ml and the EE % was 97%.

In the case of `CCCCCCC(CCCC)COC(=O)OCCOC(=O)CCN(CCCN(CCCN(CCC(=O)OCCOC(=O)OCC(CCCC)CCCCCC)CCC(=O)OCCOC(=O)OCC(CCCC)CCCCCC)CCCN1CCN(C)CC1)CCC(=O)OCCOC(=O)OCC(CCCC)CCCCCC` (centres unmarked) [Lipid L0674], in series [1], the PDI is 0.22 and the “Size (nm)” value was 124.4 nm. Further, in series [2], the “[mRNA] Ug/ml” value turned out to be 71.22 Ug/ml and the EE % was 98.92%.

Consider `CCCCCCC(CCCC)COC(=O)NCCNC(=O)CCN(CCCN(C)CCCN(CCC(=O)OCCNC(=O)OCC(CCCC)CCCCCC)CCC(=O)OCCNC(=O)OCC(CCCC)CCCCCC)CCC(=O)NCCNC(=O)OCC(CCCC)CCCCCC` (centres unmarked) [Lipid L0744], for which, in series [1], the PDI is recorded as 0.118 and the “Size (nm)” value was found to be 97 nm. Besides, in series [2], the “[mRNA] Ug/ml” value came to 74 Ug/ml and the EE % worked out at 95.5%.

Regarding `CCCCCCC(CCCC)COC(=O)OCCOC(=O)CCN(CCCN(CCCNC(=S)NC)CCCN(CCC(=O)OCCOC(=O)OCC(CCCC)CCCCCC)CCC(=O)OCCOC(=O)OCC(CCCC)CCCCCC)CCC(=O)OCCOC(=O)OCC(CCCC)CCCCCC` (centres unmarked) [Lipid L0773], in series [1], the PDI is 0.089 and the “Size (nm)” value is on record as 135.3 nm. In addition, in series [2], the “[mRNA] Ug/ml” value was 95.3 Ug/ml and the EE % is 98.7%.

Turning to `CCCCCCC(CCCC)CNC(=O)NCCNC(=O)CCN(CCCN(C)CCCN(CCC(=O)NCCNC(=O)NCC(CCCC)CCCCCC)CCC(=O)NCCNC(=O)NCC(CCCC)CCCCCC)CCC(=O)NCCNC(=O)NCC(CCCC)CCCCCC` (centres unmarked) [Lipid L0775], in series [1], the PDI worked out at 0.863 and the “Size (nm)” value is 5911 nm.

For `CC(C)CCCCCCCCSSCCOC(=O)CCN(CCCN(C)CCCN(CCC(=O)OCCSSCCCCCCCCC(C)C)CCC(=O)OCCSSCCCCCCCCC(C)C)CCC(=O)OCCSSCCCCCCCCC(C)C` [Lipid L0813], in series [1], the PDI is recorded as 0.107 and the “Size (nm)” value is 183 nm. Moreover, in series [2], the “[mRNA] Ug/ml” value turned out to be 96.7 Ug/ml and the EE % was found to be 84%.

For `CC(C)CCCCCCCCSSCCOC(=O)CCN(CCCN(C)CCCN(CCC(=O)OCCSSCCCCCCCCC(C)C)CCC(=O)OCCSSCCCCCCCCC(C)C)CCC(=O)OCCSSCCCCCCCCC(C)C` [Lipid L0814], in series [1], the PDI is on record as 0.093 and the “Size (nm)” value is given as 178.8 nm. In series [2], the “[mRNA] Ug/ml” value was found to be 90.2 Ug/ml and the EE % is given as 70%.
